This assay deals with Differentiated human macrophages. As to the kind of experiment: Cellular uptake of Alexa Fluor 555-labeled HMGB1 by differentiated macrophages. The class given is cell-based. As to conditions: P2-1 10 µg/ml, HMGB1 0.5 µg/ml, 2 h, 37 °C. Here is the method: plots and heatmaps were generat ed via ggplot2 and pheatmap packages in R, respectively. Genes with an adjusted P -value < 0.05 and a |log2 fold change| > 1 were considered differentially expressed.
Human macrophage differentiation and treatment
Human PBMCs were differentiated into macrophages by culturing in human macrophage colony-stimulating factor (M-CSF, 20 ng/ml) for 5 – 6 d. Differentiated macrophages were maintained in Dulbecco’s modified Eagle’s medium supplemented with 1% penicillin/streptomycin and 10% human serum. […]
Cell viability was assessed via the tryp an blue excl usion and lactat e dehyd ro genase (LDH) release method as previously described . For trypan blue exclusion, random phase-contr ast images were captur ed , and the percentage of nonviable, trypan blue-stained cells was calculated. LDH release in the culture medium was quantified with an LDH Ass ay Kit (Cat. #L7572, Pointe Scientific Inc., Canton, MI, USA) according to the manufacturer ’s instructions. Optical density was measured at 340 nm, and LDH content was expressed as a per centag e of maximal release in the presence of 2% Triton X-100. […]
#H-1200, Vector Laborat ories, Inc., Newark, CA, USA) for nuclear counterstaining. Endocytic uptake of Alexa Fluor 555- labeled HMGB1 (red) was visualized via the Olympus IX51 inverted fluorescence & phase contrast tissue culture microscope. […]

This note sets out measurements from article PMC12914960, “Repurposing a detrimental antibody epitope as targeted therapeutics for sepsis and rheumatoid arthritis” (Military Medical Research, 2026).

The structures appear in SMILES notation. Where a SMILES comes first, the peptide text is derived from it.

As for `CCCC[C@H](NC(=O)[C@H](Cc1c[nH]cn1)NC(=O)[C@@H](NC(=O)[C@H](CCCCN)NC(=O)[C@@H](N)[C@@H](C)O)C(C)C)C(=O)N[C@@H](CCCCN)C(=O)N[C@@H](CO)C(=O)N[C@@H](Cc1ccccc1)C(=O)N[C@@H](CC(C)C)C(=O)N[C@@H](C)C(=O)N[C@@H](Cc1ccccc1)C(=O)N[C@@H](CCC(N)=O)C(=O)N[C@H](C(=O)N[C@@H](CCCCN)C(=O)N[C@H](C(=O)O)[C@@H](C)O)[C@@H](C)O` [P2-1] (HELM PEPTIDE1{T.K.V.H.[Nle].K.S.F.L.A.F.Q.T.K.T}$$$$V2.0; N-terminus and C-terminus assumed), the “HMGB1 cellular uptake, in words” value is “markedly reduced Alexa Fluor 555-HMGB1 uptake”.
